Laboratory results: patent US12528774B2, “Thiosemicarbazone compounds and uses thereof” (The Regents of the University of California, priority 2019, dated 2026)
“And” between values parts separate entries of the source, which are not always exact repeats. Identical values can stand only once. Like-named read-outs stand apart in the source and are kept apart here.

Key:
MIAPACA2 cells [1] = assay: Proliferation assay (CellTiter-Glo, 72 h) in MIAPACA2 cells; type: cell-based, human; conditions: for IC90: Homo sapiens, MIA PaCa-2, 72 h, MIAPACA2, 72 h
Protocol: IC90 values against MIAPACA2 cells was first determined in normal cell culture conditions (DMEM media and 10% FBS). Compounds were separated into three series (4′ primary amines, 4′ secondary amines, 4′ tertiary amines) to reflect the relative degrees of 4′ amine methylation. […] (Refs 41, 42).
HCT compounds are known to be copper chelators. (Ref. 32). To test whether the compounds described herein were similarly potentiated, the IC90 (+Cu IC90) values were determined against MIAPACA2 cells in media supplemented with physiologically relevant levels of copper (DMEM media+10% FBS+20 μM CuCl2). MIAPACA2 cells were treated with the indicated HCT±20 μM Cu(II) for 72 hours, then cell viability was measured with CellTiter-Glo to determine IC90 values.
(§1) Proliferation assay: Cells were plated in 384-well plates (500 cells/well for adherent cell lines in 30 μl volume). Drugs were serially diluted to the desired concentrations and an equivalent volume of DMSO was added to vehicle control. Following 72 h incubation, ATP content was measured using CellTiter-Glo reagent according to manufacturer's instructions (Promega, CellTiter-Glo Luminescent Cell Viability Assay), and analyzed by SpectraMax luminometer (Molecular Devices). IC50 and IC90 values, concentrations required to inhibit proliferation by 50% and 90% respectively compared to DMSO treated cells, were calculated using Prism 6.0 h (Graphpad Software).
as §1, with “assay.” for “assay:”, “Software). The 430-member protein kinase inhibitor library used for the chemical genomics screen was purchased from Selleckchem, Catalog No. L1200.” for “Software).”

MIAPACA2 cells [2] = assay: Mito Stress Test (oxygen consumption rate, Seahorse); type: cell-based, human; conditions: HCT13 25 nM + Cu(II) 20 μM, 24 h
Protocol: FIG. 3A: Mito Stress Test of MIAPACA2 PDAC cells treated with HCT13 (25 nM)+Cu(II) (20 μM) for 24h. FIG. 3B: electron flow assay in isolated mitochondria treated with HCT-13 (100 nM)+Cu(II) (20 μM) for 1h. FIG. 3C: viability of 143 BTK parental (wild type, WT) and ρ0 cells after 48h of the indicated HCT13 concentration+Cu(II) (20 μM) treatment, assessed with Trypan Blue Staining. FIG. 3D: 48h cell cycle histogram and plots of S-phase arrest plots in 143 BTK WT and 143 BTK ρ0 cells at 24, 48 and 72h following treatment with indicated concentrations of HCT13+Cu(II)(20 μM). (mean±SD, n=2, one-way ANOVA corrected for multiple comparisons by Bonferroni adjustment, * P<0.05; ** P<0.01; *** P<0.001). […]
Mito Stress Test and Electron Flow Assay: All oxygen consumption rate (OCR) was measured using a XF24 Analyzer (Agilent) and normalized per μg protein. […] OCR was measured before (total respiration) and after the sequential injection of 1 μM oligomycin (complex V inhibitor), 0.75 μM FCCP (uncoupler), and 1 μM of rotenone and myxothiazol (complex I and III inhibitors, respectively), as described previously (1). Mitochondrial respiration was calculated by subtracting the non-mitochondrial respiration left after rotenone and myxothiazol injection. […] OCR was measured before and after the sequential injections described in the previous paragraph. […]

In the case of `CN(C)C(=S)N/N=C/c1nccc2cc(F)ccc12` (mixture of isomers) [HCT13, (E)-2-((6-Fluoroisoquinolin-1-yl)methylene)-N,N-dimethylhydrazine-1-carbothioamide and (Z)-2-((6-Fluoroisoquinolin-1-yl)methylene)-N,N-dimethylhydrazine-1-carbothioamide], the “increase in potency under copper supplementation versus non-copper-supplemented IC90” value (MIAPACA2 cells [1]; 20 μM CuCl2) is reported as “greater than 5 fold”, the “antiproliferative potency with Cu(II) supplementation” value (MIAPACA2 cells [1]; 72 h, Cu(II) 20 μM) is reported as “highest” and the IC90 (MIAPACA2 cells [1]; DMEM + 10% FBS + 20 μM CuCl2, read-out: +Cu(II) IC90) is reported as 21.6 nM. For the same compound, the IC90 (MIAPACA2 cells [1]; DMEM + 10% FBS, no copper supplementation, read-out: IC90) was 110 nM, the “potency relative to non-methylated analog HCT3” value (MIAPACA2 cells [1]; IC90 without copper) was ~50 fold and the “potency relative to non-fluorinated analog” value (MIAPACA2 cells [1]; IC90 without copper, analog of same 4′ amine series (HCT1, HCT6 or HCT11)) was ~250 fold and ~270 fold. The “basal respiration and maximum respiratory capacity (OCR)” value (MIAPACA2 cells [2]) was “significantly reduced” and the “basal respiration and maximum respiratory capacity (OCR)” value (MIAPACA2 cells [2]; listed as HCT-13) was “decreased significantly”.
